Among the data in a melting point compilation (Tetko et al.; mined from patent text by program, amines drawn as free bases though some values may be those of a salt) are melting point values, retold here.

With `CCCCOc1cc(/C=C(\OCC)C(=O)O)ccc1OCCc1ccc(OS(C)(=O)=O)c(Cl)c1`, the melting point was found to be 113 °C.
Next, `CCCOc1ccc(Cc2nn(-c3ccccc3Cl)c(=O)o2)cc1`: 68 °C; `COc1cc(C=CC(=O)Nc2cnc3ccc(C)cc3c2-c2ccccc2Br)cc(OC)c1OC(C)=O`: 238 to 240 °C; `Nc1ccccc1Oc1ncc(C(F)(F)F)cc1Cl`: 133 to 135 °C.
As for `Cc1cc(C)c(Nc2nc(C)nc(OC3CCOC3)c2C)c(C)c1` (stereo not drawn), the figure is 126 to 128 °C; as for `CCOC(=O)C1(NC(C)=O)CC(C)(C)NC(C)(C)C1`, 108 to 109 °C; as for `CC(C)(C)OC(=O)C(=[N+]=[N-])C(=O)C(C(=O)OC(C)(C)C)[C@H]1NC(=O)[C@@H]1Br` (stereo partly drawn), 136 to 138 °C.
`COC(C)c1cccc(NC(=O)NCC(=O)N(CC(=O)N(C)c2ccccc2)c2ccccc2)c1` (racemic) showed a melting point of 194 °C.
Take `CC(=O)OC1C(COC(=O)c2ccccc2)OC(n2cc(F)c(=O)[nH]c2=O)C1F` (stereo not drawn): the melting point lay within 177 to 179 °C.
Regarding `CSc1ccc(C(=O)Cc2ccc(F)cc2)cc1`, the melting point is 139 to 140 °C.
The compound `O=C1CCC(N2Cc3c(OCc4ccc(CN5CCN(C(=O)C6CC6)CC5)cc4)cccc3C2=O)C(=O)N1` (stereo not drawn) returned a melting point of 233 to 235 °C.
As for `Cc1cc(C)c(C(=O)O)s1`, the figure is 153 to 155 °C; as for `CCOC(=O)c1cc(F)c(N2CCC(NC(=O)OC(C)(C)C)C2)cc1F` (stereo not drawn), 98 to 100 °C.
Compound `O=C1c2ccccc2C(=O)N1CCOc1cc(F)ccc1O` displayed a melting point of 172 °C.
As for `CC(C)c1ccc(-n2nc(O)c3c(=O)c4ccc(Cl)cc4[nH]c3c2=O)cc1`, the melting point was 393 to 394 °C.
On to `O=C(Nc1ncc(C(F)(F)F)o1)C1c2ccccc2Oc2cc(F)ccc21` (racemic), for which the melting point was determined as 250 °C.
`COc1ccc(S(=O)(=O)N(CCNC(C)=O)c2ccc(C)cc2Cc2c(F)cccc2F)cc1OC` registered a melting point of 79.7 °C.
As for `CS(=O)(=O)Cc1cnc2ccccc2c1Cl`, the melting point lay in the range of 202 to 204 °C.
Regarding `CCO/C=C1\SC(=S)N(C)C1=O`, the melting point lay within 110 to 111 °C.
The compound `COc1ccc(-c2nc(C(=O)NC(=N)N)sc2-c2ccc(OC)cc2)cc1` yielded a melting point of 253 to 255 °C.
`COC1(c2ccc(F)cc2)CCC(=O)CC1` showed a melting point of 57 to 59 °C.
Regarding `CN(C)CCCC(=O)Nc1nc2c(s1)-c1c(cnn1-c1ccccc1)CC2`, the melting point is 165 to 166 °C.
As to `COc1ccc(-c2ocnc2-c2cc(OC)c(OC)c(OC)c2)cc1F`, the melting point lay in the range of 139 to 140 °C.
Consider `Clc1cccc(Cl)c1-c1nsnc1OCCBr`, for which the melting point is 60 to 61 °C.
Compound `CCCNC(=O)C(C)=Cc1ccc2ccn(Cc3ccc(C(=O)O)cc3OC)c2c1` registered a melting point of 150 to 152 °C.
In turn, `CC(CC(=O)O)C(=O)NC1(C(=O)O)CCCC1` (stereo not drawn) yielded a melting point of 169 to 170 °C.
For `COc1ccccc1N1CCN(CCc2ccc3c(c2)oc(=O)n3C)CC1`, the melting point lay in the range of 137 to 138 °C.
`C#CC1(O)C(C)CC2C3CCC4=CC(=O)CCC4(C)C3=CCC21C` (stereo not drawn) displayed a melting point of 213 to 218 °C.
With `CNCC1Cc2cc(F)cc(-c3cccc(OC)c3OC)c2O1` (stereo not drawn), the melting point was 85 to 89 °C.
Take `c1ccc(COc2ccc(N3CCN(Cc4nc5ccccc5[nH]4)CC3)nc2)cc1`: the melting point is 62 to 64 °C.
Turning to `O=c1nc(-c2ccccn2)sc2ccc(Cl)cc12`, the melting point lay within 269 to 270 °C.
With `O=C1N(CC2CCCO2)c2ccccc2C12COc1c[nH]c(=O)cc12` (stereo not drawn), the melting point was > 250 °C.
Next, `CCCOc1ccccc1-c1ccc(C#N)c(=S)[nH]1`: 127 to 128 °C; `Cc1ccc(Oc2ccc(Oc3ccc(C)c(C)c3)cc2)cc1C`: 106 °C; `O=C(Nc1ccc(CC2CCN(S(=O)(=O)c3ccccc3)CC2)cc1)C(F)(F)F`: 194 to 195 °C.
`CCc1ccc(NC2=CC3=NCN(C)C3=CC2(F)C(=O)OC)c(F)c1` (stereo not drawn) came in with a melting point of 238 °C.
As for `O=C(OCc1ccc(C(F)(F)F)cc1)N1CCN(CC2Cn3cc([N+](=O)[O-])nc3O2)CC1` (stereo not drawn), the figure is 120 to 122 °C.
In the case of `Nc1nc(=O)n(CC2CC2)cc1F`, the melting point fell in the range of 224 to 226 °C.
The compound `COc1cc(C(=O)N2CCC(CCN3CCC(Nc4nc5ccccc5n4Cc4ccccn4)CC3)(c3ccc(F)c(F)c3)C2)cc(OC)c1OC` (stereo not drawn) displayed a melting point of 101 to 107 °C.
In turn, `CCOCC(=O)N(c1c(C)c(C)cc2ccccc12)C(C)C(=O)OC` (stereo not drawn) came in with a melting point of 96 to 108 °C.
`COC(=O)C(=CNc1ccc(O)cc1)C(=O)C=CC1CC=CCC1` (stereo not drawn) returned a melting point of 151 to 153 °C.
In turn, `O=CNC1Cc2cc(Br)ccc2N(C=O)C1` (stereo not drawn) registered a melting point of 174 to 178 °C.
`CC(C)S(=O)(=O)C1C(=O)N(Cc2ccccc2F)C(=O)c2ccccc21` (stereo not drawn) came in with a melting point of 174 to 181 °C.
On to `CS(=O)(=O)NCC1COCc2nc3c(N)nc4ccccc4c3n21` (stereo not drawn), for which the melting point was 285 to 288 °C.
Take `COc1ccc(-c2cc3cc(C4=NNC(=O)CC4)ccc3[nH]2)cc1`: the melting point fell in the range of 262 to 264 °C.
For `CC(C)(C)OC(=O)NN(C[C@H](O)[C@H](Cc1ccccc1)NC(=O)OCc1ccccc1)C1CCCCC1`, the melting point lay in the range of 142 to 143 °C.
`Nc1ccc2c(c1)CC(NS(=O)(=O)c1ccc(Cl)cc1)C2` (stereo not drawn) registered a melting point of 145 to 147 °C.
`CC(=O)OCC(=O)Nc1cccc2c1C(=O)N(C1CCC(=O)NC1=O)C2=O` (stereo not drawn) had a melting point of 234 to 236 °C.
For `Fc1ccc(CNc2ccc(-n3nc(C(F)(F)F)cc3C(F)(F)F)cc2)cc1`, the melting point was in the range of 92 to 94 °C.
In the case of `CCOC(=O)CC[C@H](NC(=O)c1ccc(CCC2CNc3nc(NC(=O)C(C)(C)C)nc(O)c3C2)cc1)C(=O)OCC` (stereo partly drawn), the melting point is > 250 °C.
Next, `CC(c1cc(Br)c(O)c(Br)c1)(c1cc(Br)c(O)c(Br)c1)c1cc(Br)c(O)c(Br)c1`: 160 °C; `CCN(CC)c1ccc2nc3c4ccccc4c(=Nc4ccc5ccccc5n4)cc-3oc2c1`: 234 to 236 °C.
Take `CCn1c(=O)n(-c2ccc(Oc3nc4cccnc4n3C)cc2)c2nccc(C(F)(F)F)c21`: the melting point was 244 to 246 °C.
In turn, `CCCCOCCOc1ccc(-c2ccc(N3CCCCCC3)c(C=CC(=O)O)c2)cc1` showed a melting point of 135 to 138 °C.
Consider `O=C(O)c1cc(-c2ccc(-c3ccc(C(F)(F)F)cc3)o2)ccc1O`, for which the melting point lay in the range of 272 to 273 °C.
`COc1ccccc1C1CCN(C[C@@H](CC2CCCCC2)NC(=O)C2CCCCC2)CC1` registered a melting point of 100 to 103 °C.
Next, `CC(C)CCNC(Nc1ccccc1)=C(C#N)C#N`: 183 to 185 °C; `CC1=C(c2ccc(C(=O)N3Cc4ccc(C(=O)C(Cl)(Cl)Cl)n4Cc4ccccc43)cc2)CCCC1`: 171 °C.
Compound `N#Cc1cccc(C(CC(=O)O)N2C(=O)c3ccccc3C2=O)c1` (stereo not drawn) came in with a melting point of 217 to 220 °C.
`O=C(Nc1ccccn1)c1c(C(F)(F)F)nc2c(C(F)(F)F)cccc2c1O` registered a melting point of 236 °C.
As for `CNCc1cn(S(=O)(=O)c2cccnc2)c(-c2ccccc2)c1F`, the melting point lay within 98 to 99 °C.
For `CCCCCCSc1nn2c(=O)c(Cl)c(F)nc2s1`, the melting point was in the range of 105 to 111 °C.
In turn, `Cc1coc2c1C(=O)CC(c1ccccc1F)C2` (stereo not drawn) displayed a melting point of 71 to 72 °C.
`CC(O)CNc1ccc(NC(=O)n2ccc3cc(Oc4cc(CC(N)=O)ncn4)ccc32)cc1C(F)(F)F` (stereo not drawn) registered a melting point of 226 to 230 °C.
As to `O=C(Oc1cccc2c(-c3ccccc3)c3cccc(OC(=O)c4ccccc4)c3c(OC(=O)c3ccccc3)c12)c1ccccc1`, the melting point was determined as 255 °C.
Turning to `COc1ccccc1OCCCOS(N)(=O)=O`, the melting point fell in the range of 80 to 83 °C.
As to `OC1CCCCCC1n1cncn1` (stereo not drawn), the melting point fell in the range of 85 to 86 °C.
Take `Cc1cccc(-c2ccc(NC(=O)OC(C)(C)C)c([N+](=O)[O-])c2)c1`: the melting point was in the range of 83 to 85 °C.
Turning to `CC(C)Oc1cc(CCC(=O)O)n(Cc2ccc(C(F)(F)F)cc2Cl)n1`, the melting point was found to be 122 °C.
As for `C=C(Cc1ccc2c(c1)OCO2)C(=O)O`, the figure is 121 °C.
With `CC(c1ccccc1)(c1ccc(O)cc1)c1ccc(O)cc1`, the melting point is 185 to 187 °C.
`CCCCNC(=O)NC1Cc2ccc(C3=NNC(=O)CC3)cc2C1` (stereo not drawn) registered a melting point of 206 to 207 °C.
The compound `CCOC(=O)c1nn(-c2ccc(Cl)cc2Cl)c(-c2ccc(Br)cc2)c1CC` registered a melting point of 108 °C.
In turn, `O=C(N[C@H]1CC[C@@H](F)CC1)OCc1ccccc1` yielded a melting point of 105 to 107 °C.
As for `CCC1c2cc(OC)c(OC)cc2C(C=Cc2ccc(N)cc2)=NNC1C` (stereo not drawn), the figure is 155 to 158 °C; as for `NC(=O)N(O)CCNC(=O)c1cc2c(Cl)cccc2s1`, 181 to 184 °C; as for `FC(F)(F)c1ccc(C#Cc2ccc(C#Cc3cc4ccccc4s3)s2)cc1`, 149 to 150 °C.
As for `Cc1c(C)n(CC(F)(F)F)c2c(OCc3ccccc3)nncc12`, the figure is 83 to 84 °C; as for `COC(=O)CSC(c1ccccc1)(c1ccccc1)c1ccccc1`, 111 to 115 °C.
In turn, `COc1ccc(C(C)(O)C(F)(F)F)c(CCO)c1` (stereo not drawn) yielded a melting point of 110 to 111 °C.
Take `CC(C)(C)N1Sc2ccccc2C1O` (stereo not drawn): the melting point was in the range of 114 to 116 °C.
The compound `O=C(O)CCCCNC(=O)CCCCC1CCSS1` (stereo not drawn) had a melting point of 98 to 100 °C.
As to `Cc1oc(-c2ccc(F)cc2)cc1CO`, the melting point lay in the range of 80 to 82 °C.
Next, `CCOC(=O)c1c(N2CCN(C(=O)c3cccs3)CC2)c2sccc2n(CC(=O)c2ccccc2)c1=O`: 240 °C; `CCOc1cc([C@@H](CCN(C=O)OC(C)=O)N2Cc3cccc(NC(=O)C(C)C)c3C2=O)ccc1OC`: 72 to 74 °C.
On to `CCc1nc2c3c(c(C(=O)N(C)C)c(-c4ccccc4)c2n1C)CCCO3`, for which the melting point lay in the range of 195 to 197 °C.
In turn, `N#Cc1ccccc1F` showed a melting point of 98 to 100 °C.
On to `CCCCCCCNC(=O)Nc1ccccc1C(=O)Nc1c(C(C)C)cccc1C(C)C`, for which the melting point was in the range of 123 to 125 °C.

Broadly, the melting point is the temperature, or range, at which the solid turns liquid.
